pIC50: −log10 of the molar value.
Tests used:
[1] = system: Trypanosoma brucei; assay: Antitrypanosomal activity against Trypanosoma brucei Lister 427 after 2 days by Alamar Blue fluorescence assay; type: functional, organism-based; conditions: Lister 427, 48 h
[2] = Selectivity index, ratio of IC50 for rat L6 cells to IC50 for Trypanosoma brucei Lister 427; type: toxicity, cell-based; conditions: L6 cells (versus Trypanosoma brucei Lister 427), read-out: Ratio IC50
[3] = system: L6; assay: Cytotoxicity against rat L6 cells after 6 days by Alamar Blue fluorescence assay; type: cell-based; conditions: L6, 144 h

pIC50 [1]	IC90 [1] [µM]	Compound	selectivity ratio [2]	pIC50 [3]
5.53	4.51	CC1=NCC(C23CC4CC(CC(C5CCCC5)(C4)C2)C3)N1C (stereo not drawn)	1.3	5.42
5.78	2.23	CN1C(N)=NCC1C12CC3CC(CC(C4CCCC4)(C3)C1)C2 (stereo not drawn)	7.1	4.93
5.54	4.2	C1=NCC(C23CC4CC(CC(C5CCCCC5)(C4)C2)C3)N1 (stereo not drawn)	2.5	5.14
5.73	2.52	NC1=NCC(C23CC4CC(CC(C5CCCCC5)(C4)C2)C3)N1 (stereo not drawn)	10.2	4.72
5.76	2.35	CN1C(N)=NCC1C12CC3CC(CC(C4CCCCC4)(C3)C1)C2 (stereo not drawn)	4.3	5.13
5.15	9.02	C1=NCC(C23CC4CC(CC(c5ccccc5)(C4)C2)C3)N1 (stereo not drawn)		
5.10	13.1	CN1C=NCC1C12CC3CC(CC(c4ccccc4)(C3)C1)C2 (stereo not drawn)		
5.15	10.3	CC1=NCC(C23CC4CC(CC(c5ccccc5)(C4)C2)C3)N1C (stereo not drawn)		
5.13	11.8	NC1=NCC(C23CC4CC(CC(c5ccccc5)(C4)C2)C3)N1 (stereo not drawn)		
6.19	0.84	NC1=NCC(C23CC4CC(CC(C5CCCC5)(C4)C2)C3)N1C1CCCCC1 (stereo not drawn)	5	5.49
4.95	15.5	NC1=NCC(C23CC4CC(CC(C5CCCC5)(C4)C2)C3)N1c1ccccc1 (stereo not drawn)		
< 3.88	> 132	NC12CC3CC(CC(C3)C1)C2 [AMANTADINE]		

Second part, the compound before the results:

Compound	pIC50 [1]	IC90 [1] [µM]	selectivity ratio [2]	pIC50 [3]
C1=NCC(C23CC4CC(CC(C5CCCC5)(C4)C2)C3)N1 (stereo not drawn)	5.80	2.42	2.4	5.43
CN1C=NCC1C12CC3CC(CC(C4CCCC4)(C3)C1)C2 (stereo not drawn)	5.82	1.83	3.9	5.24
CC1=NCC(C23CC4CC(CC(C5CCCC5)(C4)C2)C3)N1 (stereo not drawn)	5.67	2.77	1.6	5.45
NC1=NCC(C23CC4CC(CC(C5CCCC5)(C4)C2)C3)N1 (stereo not drawn)	5.66	2.63	7.9	4.76
CC1=NCC(C23CC4CC(CC(c5ccccc5)(C4)C2)C3)N1 (stereo not drawn)	5.31	8.11		
CN1C(N)=NCC1C12CC3CC(CC(c4ccccc4)(C3)C1)C2 (stereo not drawn)	5.34	5.58		
C1=NCC(C23CC4CC(CC(C5CCCC5)(C4)C2)C3)N1C1CCCCC1 (stereo not drawn)	5.74	2.41	1.9	5.46
C1=NCC(C23CC4CC(CC(C5CCCC5)(C4)C2)C3)N1c1ccccc1 (stereo not drawn)	4.79	24.2		
CC(N)C12CC3CC(CC(C3)C1)C2 (stereo not drawn) [RIMANTADINE]		14		

From ChEMBL document CHEMBL3217634, “Synthesis and trypanocidal action of new adamantane substituted imidazolines” (Medchemcomm, 2013)
